The source of these data is PubChem BioAssay AID720688 (NMMLSC, 2013).

Activity calls are given as the source filed them.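 How the source made its calls: active means half-effect concentration at most 10 µM, response change at least 30% across doses, and a curve fit passing quality checks; inactive means the rest.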

This test addresses Cell division control protein 42 homolog (Homo sapiens) (UniProt P60953). Nature of the test: Cdc42 wildtype GTP-binding inhibitors, late-stage follow-up, mechanism study for Ras-family GTPase inhibitor project, biochemical, protein source comparison, flow cytometry beads, Bodipy-FL-GTP (AID 720688). As to conditions: GST-Cdc42 beads.

Cell division control protein 42 homolog (Homo sapiens), sequence (P60953 whole entry, looked up): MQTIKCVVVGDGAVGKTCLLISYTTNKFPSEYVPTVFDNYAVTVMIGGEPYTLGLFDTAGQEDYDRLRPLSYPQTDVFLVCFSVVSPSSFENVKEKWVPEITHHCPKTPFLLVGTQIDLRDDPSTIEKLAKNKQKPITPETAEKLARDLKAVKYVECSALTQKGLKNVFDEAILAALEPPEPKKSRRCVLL

Consider `CC1(C)Cc2c(sc(NC(=S)NC(=O)c3ccc(N=[N+]=[N-])cc3)c2C(=O)O)CO1`, for which, for the setting “protein source 2, at 100 µM (top of the series)”, the “% response remaining, lower = inhibition” value is “inactive”.
By EC50 is commonly meant the concentration needed to bring the measured effect to its halfway point. On to `CC1(C)Cc2c(sc(NC(=S)NC(=O)c3cccc(N=[N+]=[N-])c3)c2C(=O)O)CO1`, for which, for the setting “protein source 2”, the half-maximal effective concentration (EC50) was 18.6 µM.
